Source: patent publication US20250205344A1, “2,4-DIOXOTETRAHYDROPYRIMIDINYL DERATIVES AS DEGRONS IN PROTACS” (GLAXOSMITHKLINE INTELLECTUAL PROPERTY DEVELOPMENT LIMITED, priority 2022, published 2025)
Counter-ions that a name gives are not always drawn.

What was measured:
Androgen Receptor = target: T1, Androgen Receptor (Homo sapiens, UniProt P10275, T878A); assay: Androgen Receptor Degradation Assay (Nano-Glo HiBiT); assay type: cell-based; details: LNCaP, 18 h, HiBiT-tagged AR in human LnCaP cells, read-out: mean asymptote max
T1 construct: the AR gene was modified, using CRISPR/Cas9 editing, so the expressed AR protein included an 11 amino acid HiBiT tag; endogenous in cells; host or cells: clonal LnCaP-derived line, AR gene edited by CRISPR/Cas9
T1 sequence (P10275 whole entry T878A): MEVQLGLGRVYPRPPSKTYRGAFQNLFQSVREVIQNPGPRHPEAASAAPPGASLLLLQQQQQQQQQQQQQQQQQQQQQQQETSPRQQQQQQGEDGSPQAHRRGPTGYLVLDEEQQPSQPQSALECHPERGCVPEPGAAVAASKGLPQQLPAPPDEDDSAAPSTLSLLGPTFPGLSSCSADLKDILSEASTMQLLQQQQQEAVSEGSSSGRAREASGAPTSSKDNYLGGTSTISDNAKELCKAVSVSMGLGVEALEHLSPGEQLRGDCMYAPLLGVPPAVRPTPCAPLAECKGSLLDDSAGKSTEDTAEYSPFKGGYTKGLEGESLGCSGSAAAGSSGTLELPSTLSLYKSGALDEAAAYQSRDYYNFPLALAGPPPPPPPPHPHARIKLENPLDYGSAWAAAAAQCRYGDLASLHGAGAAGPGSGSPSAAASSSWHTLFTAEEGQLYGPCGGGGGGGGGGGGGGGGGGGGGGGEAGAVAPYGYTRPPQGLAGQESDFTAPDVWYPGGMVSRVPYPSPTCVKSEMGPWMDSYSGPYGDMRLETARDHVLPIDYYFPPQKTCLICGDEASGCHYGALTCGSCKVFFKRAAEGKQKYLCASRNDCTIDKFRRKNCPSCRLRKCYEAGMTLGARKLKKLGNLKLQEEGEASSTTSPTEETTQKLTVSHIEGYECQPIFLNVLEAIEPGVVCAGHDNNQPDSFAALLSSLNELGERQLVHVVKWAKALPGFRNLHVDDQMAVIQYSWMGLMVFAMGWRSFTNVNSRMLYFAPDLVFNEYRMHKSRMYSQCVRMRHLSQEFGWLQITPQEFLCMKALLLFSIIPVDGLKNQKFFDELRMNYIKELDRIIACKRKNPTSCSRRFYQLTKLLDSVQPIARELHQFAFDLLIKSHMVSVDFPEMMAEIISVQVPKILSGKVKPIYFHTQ
T1 sequence (Q96SW2 whole entry partner): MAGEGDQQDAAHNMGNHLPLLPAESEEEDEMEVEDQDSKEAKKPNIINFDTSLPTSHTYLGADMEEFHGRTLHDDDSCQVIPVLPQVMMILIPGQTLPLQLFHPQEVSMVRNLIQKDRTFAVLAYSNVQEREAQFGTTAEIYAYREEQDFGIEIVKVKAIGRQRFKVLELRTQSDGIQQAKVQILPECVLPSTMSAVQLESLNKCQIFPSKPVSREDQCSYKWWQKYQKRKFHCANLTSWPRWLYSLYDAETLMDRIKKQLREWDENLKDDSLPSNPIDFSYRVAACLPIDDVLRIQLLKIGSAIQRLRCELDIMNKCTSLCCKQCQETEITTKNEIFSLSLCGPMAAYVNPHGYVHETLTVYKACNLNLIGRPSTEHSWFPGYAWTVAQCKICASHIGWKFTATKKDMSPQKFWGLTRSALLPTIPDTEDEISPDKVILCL
T1 sequence (Q16531 whole entry partner): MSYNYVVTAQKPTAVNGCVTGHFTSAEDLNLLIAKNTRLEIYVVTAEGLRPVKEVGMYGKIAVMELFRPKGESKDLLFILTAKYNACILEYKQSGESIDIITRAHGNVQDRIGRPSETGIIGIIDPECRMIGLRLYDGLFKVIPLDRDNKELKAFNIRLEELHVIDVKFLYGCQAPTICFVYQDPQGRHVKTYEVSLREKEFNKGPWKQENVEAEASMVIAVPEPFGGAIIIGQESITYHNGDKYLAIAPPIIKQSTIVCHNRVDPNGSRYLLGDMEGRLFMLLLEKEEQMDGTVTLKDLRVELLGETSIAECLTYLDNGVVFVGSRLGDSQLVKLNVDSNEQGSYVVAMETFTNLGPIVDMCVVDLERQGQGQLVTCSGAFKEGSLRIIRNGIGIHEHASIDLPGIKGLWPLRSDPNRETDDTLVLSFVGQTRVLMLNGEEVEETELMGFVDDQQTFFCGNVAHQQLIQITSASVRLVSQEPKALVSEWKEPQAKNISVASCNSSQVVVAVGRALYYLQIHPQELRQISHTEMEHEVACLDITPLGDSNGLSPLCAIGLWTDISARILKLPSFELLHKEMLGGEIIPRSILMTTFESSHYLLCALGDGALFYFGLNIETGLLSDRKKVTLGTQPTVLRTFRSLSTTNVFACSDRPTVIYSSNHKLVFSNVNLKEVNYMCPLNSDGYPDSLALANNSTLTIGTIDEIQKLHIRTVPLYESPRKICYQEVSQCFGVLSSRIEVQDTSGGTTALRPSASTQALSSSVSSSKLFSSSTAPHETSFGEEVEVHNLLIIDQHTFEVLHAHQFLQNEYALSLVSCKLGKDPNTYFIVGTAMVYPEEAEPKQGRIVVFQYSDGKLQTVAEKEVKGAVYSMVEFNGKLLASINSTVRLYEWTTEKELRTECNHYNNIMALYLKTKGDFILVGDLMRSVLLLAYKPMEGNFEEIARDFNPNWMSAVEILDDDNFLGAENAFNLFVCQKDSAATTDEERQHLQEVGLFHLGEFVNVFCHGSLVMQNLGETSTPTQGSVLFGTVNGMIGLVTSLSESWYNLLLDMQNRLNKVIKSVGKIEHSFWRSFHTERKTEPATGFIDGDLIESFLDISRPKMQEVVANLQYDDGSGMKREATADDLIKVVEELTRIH
Method in brief: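 LnCaP cells with CRISPR-knocked-in N-terminal HiBiT-tagged AR (10,000/well) treated 18 h at 37 °C with PROTACs over 11 threefold concentrations; lytic HiBiT luminescence normalised to DMSO (0%) and cell-free (100%) controls. Relative DC50 = 4-parameter fit inflection; absolute DC50 = 50% degradation interpolation; Dmax = maximum observed degradation.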

[1] = target: T2, Androgen Receptor dual T878A/L702H mutant protein (Homo sapiens, UniProt P10275, L702H/T878A); assay: Dual Mutant (T878A/L702H) Androgen Receptor Degradation Assay (HTRF); assay type: cell-based; details: MDA-PCa-2b, 18 h, human MDA PCa 2b cells, read-out: mean asymptote max
T2 construct: Androgen Receptor dual T878A/L702H mutant protein in human MDA PCa 2b (ATCC, #CRL-2422) cells; host or cells: MDA PCa 2b
T2 sequence (P10275 1-920 L702H/T878A): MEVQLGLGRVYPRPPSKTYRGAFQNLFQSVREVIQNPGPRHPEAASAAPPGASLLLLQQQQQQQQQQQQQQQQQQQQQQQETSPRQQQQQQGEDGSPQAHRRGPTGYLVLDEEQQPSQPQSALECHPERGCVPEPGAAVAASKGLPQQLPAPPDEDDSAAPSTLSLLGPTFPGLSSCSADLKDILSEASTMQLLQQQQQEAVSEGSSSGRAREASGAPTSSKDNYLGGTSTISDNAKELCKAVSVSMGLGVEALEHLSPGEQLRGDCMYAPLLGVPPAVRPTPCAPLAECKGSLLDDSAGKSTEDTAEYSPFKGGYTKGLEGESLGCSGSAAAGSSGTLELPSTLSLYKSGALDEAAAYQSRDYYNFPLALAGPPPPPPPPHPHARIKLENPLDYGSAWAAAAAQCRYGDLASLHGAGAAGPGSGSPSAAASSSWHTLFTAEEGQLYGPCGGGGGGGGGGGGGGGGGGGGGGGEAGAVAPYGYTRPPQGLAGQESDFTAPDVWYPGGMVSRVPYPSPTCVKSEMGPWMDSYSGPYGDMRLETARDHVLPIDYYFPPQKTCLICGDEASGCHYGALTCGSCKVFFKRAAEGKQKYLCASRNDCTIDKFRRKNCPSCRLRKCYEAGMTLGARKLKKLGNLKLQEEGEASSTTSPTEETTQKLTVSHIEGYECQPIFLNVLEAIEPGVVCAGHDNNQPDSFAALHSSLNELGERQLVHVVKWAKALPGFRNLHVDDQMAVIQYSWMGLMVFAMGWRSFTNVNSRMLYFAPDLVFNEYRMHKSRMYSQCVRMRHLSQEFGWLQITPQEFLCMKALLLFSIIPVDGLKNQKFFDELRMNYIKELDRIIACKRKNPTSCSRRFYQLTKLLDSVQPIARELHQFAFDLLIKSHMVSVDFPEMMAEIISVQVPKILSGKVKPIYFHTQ
Experimental: Degradation of Androgen Receptor dual T878A/L702H mutant protein in human MDA PCa 2b (ATCC, #CRL-2422) cells treated with PROTACs was quantified using the HTRF Human Androgen Receptor Detection Kit (PerkinElmer, #64ANDRPEH) in 384 well assay plate format. 10 mM DMSO(Sigma-Aldrich, #472301) stock solutions of PROTACs were prepared and diluted across an 11 concentration, 3-fold increment range, and 25 nL dispensed into a white opaque bottomed 384 well assay plate (Thermofisher, #164610) using an acoustic ECHO dispenser (Labcyte). Cells were cultured in growth medium (BRFF-HPC-1 (Athena ES, #0403) supplemented with 20% FBS (Gibco, #10099-141), penicillin 50 U/mL and streptomycin 50 ug/mL (Gibco, #15140-122)) in collagen I or poly-D-lysine coated T175 flasks (Corning, #356487 or #356539, respectively). For the assay, cells were harvested from the flask, centrifuged at 200 g for 5 min and then resuspended in the growth medium. 25 μl of cell suspension containing 10,000 cells was dispensed into each well of the assay plate containing the test compounds, which was then incubated for 18 h at 37° C./5% CO2. Control wells were included on each assay plate, with assay medium without cells being the no AR remaining 100% effect control, and cells treated with DMSO vehicle only, without PROTAC, the 0% effect control. After 18 h incubation 8 μl of supplemented lysis buffer from HTRF kit was added to each well and the plate shaken at 500 rpm for 1 h at room temperature. 8 μl of antibody mix in Detection buffer from HTRF kit was added to each well and the plate was incubated for 2 h in dark at room temperature. The fluorescence was measured at both 620 nm and 665 nm using an excitation wavelength of 337 nm with a PHERAstar microplate reader (BMG Labtech) and the % AR protein remaining in each well was calculated by normalising the HTRF ratio (665 nm signal/620 nm signal) value to the control wells mentioned above. Parameters corresponding to the potency and efficacy estimates of the PROTACs were obtained from these normalised values using curve fitting software (IDBS ActivityBase). These included the DC50 and the Dmax estimates. Two versions of the DC50, called relative DC50 and absolute DC50, were typically generated. These are the inflection point of a fitted 4 parameter sigmoidal response curve and the interpolated concentration of PROTAC corresponding to 50% of the protein being degraded, respectively. The Dmax parameter was the maximum experimentally observed degradation and the asymptote max parameter the fitted response curve asymptote maximum.

Dmax (Androgen Receptor) [%]	Dmax [1] [%]	SMILES
≥ 50	≥ 55	CC1(C)[C@H](NC(=O)c2cnc(N3CCC(CN4CCC(n5ncc6c(N7CCC(=O)NC7=O)cccc65)CC4)CC3)cn2)C(C)(C)[C@H]1Oc1ccc(C#N)c(Cl)c1 [EAR37, N-((1r,3r)-3-(3-Chloro-4-cyanophenoxy)-2,2,4,4-tetramethylcyclobutyl)-5-(4-((4-(4-(2,4-dioxotetrahydropyrimidin-1(2H)-yl)-1H-indazol-1-yl)piperidin-1-yl)methyl)piperidin-1-yl)pyrazine-2-carboxamide hydrochloride]
≥ 50	≥ 55	CC1(C)[C@H](NC(=O)c2cnc(N3CCC(CN4CCC(n5ccc6c(N7CCC(=O)NC7=O)cncc65)CC4)CC3)nc2)C(C)(C)[C@H]1Oc1ccc(C#N)c(Cl)c1 [EAR18, N-((1r,3r)-3-(3-Chloro-4-cyanophenoxy)-2,2,4,4-tetramethylcyclobutyl)-2-(4-((4-(4-(2,4-dioxotetrahydropyrimidin-1(2H)-yl)-1H-pyrrolo[2,3-c]pyridin-1-yl)piperidin-1-yl)methyl)piperidin-1-yl)pyrimidine-5-carboxamide]
≥ 50	≥ 55	CC1(C)[C@H](NC(=O)c2ccc(CCCCCCN3CCC(n4ccc5c(N6CCC(=O)NC6=O)cccc54)CC3)cc2)C(C)(C)[C@H]1Oc1ccc(C#N)c(C(F)(F)F)c1 [EAR75, N-((1r,3r)-3-(4-Cyano-3-(trifluoromethyl)phenoxy)-2,2,4,4-tetramethylcyclobutyl)-4-(6-(4-(4-(2,4-dioxotetrahydropyrimidin-1(2H)-yl)-1H-indol-1-yl)piperidin-1-yl)hexyl)benzamide]
≥ 50	≥ 55	CC1(C)[C@H](NC(=O)c2ccc(N3CCC(CN4CCC(n5ccc6c(N7CCC(=O)NC7=O)nccc65)CC4)CC3)nn2)C(C)(C)[C@H]1Oc1ccc(C#N)c2ncccc12 [EAR251, N-((1r,3r)-3-((8-Cyanoquinolin-5-yl)oxy)-2,2,4,4-tetramethylcyclobutyl)-6-(4-((4-(4-(2,4-dioxotetrahydropyrimidin-1(2H)-yl)-1H-pyrrolo[3,2-c]pyridin-1-yl)piperidin-1-yl)methyl)piperidin-1-yl)pyridazine-3-carboxamide hydrochloride]

More lines, now with the values behind:

SMILES	Dmax (Androgen Receptor) [%]	Dmax [1] [%]
CC1(C)[C@H](NC(=O)c2ccc(N3CCC(CN4CCC(n5ccc6c(N7CCC(=O)NC7=O)cccc65)CC4)CC3)nc2)C(C)(C)[C@H]1Oc1ccc(C#N)c(Cl)c1 [EAR29, N-((1r,3r)-3-(3-chloro-4-cyanophenoxy)-2,2,4,4-tetramethylcyclobutyl)-6-(4-((4-(4-(2,4-dioxotetrahydropyrimidin-1(2H)-yl)-1H-indol-1-yl)piperidin-1-yl)methyl)piperidin-1-yl)nicotinamide formate]	≥ 50	≥ 55
CC1(C)[C@H](NC(=O)c2cnc(N3CCC(C(=O)N4CCC(n5ccc6c(N7CCC(=O)NC7=O)cccc65)CC4)CC3)nc2)C(C)(C)[C@H]1Oc1ccc(C#N)c(Cl)c1 [AR67, N-((1r,3r)-3-(3-Chloro-4-cyanophenoxy)-2,2,4,4-tetramethylcyclobutyl)-2-(4-(4-(4-(2,4-dioxotetrahydropyrimidin-1(2H)-yl)-1H-indol-1-yl)piperidine-1-carbonyl)piperidin-1-yl)pyrimidine-5-carboxamide]	≥ 50	≥ 55
CC1(C)[C@H](NC(=O)c2cnc(N3CCC(CN4CCC(n5ccc6c(N7CCC(=O)NC7=O)cncc65)CC4)CC3)cn2)C(C)(C)[C@H]1Oc1ccc(C#N)c(Cl)c1 [AR14, N-((1r,3r)-3-(3-Chloro-4-cyanophenoxy)-2,2,4,4-tetramethylcyclobutyl)-5-(4-((4-(4-(2,4-dioxotetrahydropyrimidin-1(2H)-yl)-1H-pyrrolo[2,3-c]pyridin-1-yl)piperidin-1-yl)methyl)piperidin-1-yl)pyrazine-2-carboxamide]	≥ 50	≥ 55
CC1(C)[C@H](NC(=O)c2ccc(N3CCC(CN4CCC(n5ncc6c(N7CCC(=O)NC7=O)cccc65)CC4)CC3)nc2)C(C)(C)[C@H]1Oc1ccc(C#N)c(Cl)c1 [AR41, N-((1r,3r)-3-(3-Chloro-4-cyanophenoxy)-2,2,4,4-tetramethylcyclobutyl)-6-(4-((4-(4-(2,4-dioxotetrahydropyrimidin-1(2H)-yl)-1H-indazol-1-yl)piperidin-1-yl)methyl)piperidin-1-yl)nicotinamide hydrochloride]	≥ 50	≥ 55
CC1(C)[C@H](NC(=O)c2ccc(N3CCC(CN4CCC(n5ncc6c(N7CCC(=O)NC7=O)cccc65)CC4)CC3)nc2)C(C)(C)[C@H]1Oc1ccc(C#N)c2ncccc12 [AR261, N-((1r,3r)-3-((8-Cyanoquinolin-5-yl)oxy)-2,2,4,4-tetramethylcyclobutyl)-6-(4-((4-(4-(2,4-dioxotetrahydropyrimidin-1(2H)-yl)-1H-indazol-1-yl)piperidin-1-yl)methyl)piperidin-1-yl)nicotinamide hydrochloride]		≥ 55
CC1(C)[C@H](NC(=O)c2ccc(N3CCC(CN4CCC(n5ccc6c(N7CCC(=O)NC7=O)ncnc65)CC4)CC3)nn2)C(C)(C)[C@H]1Oc1ccc(C#N)c(Cl)c1 [AR247, N-((1r,3r)-3-(3-Chloro-4-cyanophenoxy)-2,2,4,4-tetramethylcyclobutyl)-6-(4-((4-(4-(2,4-dioxotetrahydropyrimidin-1(2H)-yl)-7H-pyrrolo[2,3-d]pyrimidin-7-yl)piperidin-1-yl)methyl)piperidin-1-yl)pyridazine-3-carboxamide]	≥ 50	≥ 55
CC1(C)[C@H](NC(=O)c2ccc(N3CCC(CN4CCC(n5ncc6c(N7CCC(=O)NC7=O)cccc65)CC4)CC3)nn2)C(C)(C)[C@H]1Oc1ccc(C#N)c2ncccc12 [AR246, N-((1r,3r)-3-((8-Cyanoquinolin-5-yl)oxy)-2,2,4,4-tetramethylcyclobutyl)-6-(4-((4-(4-(2,4-dioxotetrahydropyrimidin-1(2H)-yl)-1H-indazol-1-yl)piperidin-1-yl)methyl)piperidin-1-yl)pyridazine-3-carboxamide]	≥ 50	≥ 55
